Publication PMC4669414 (Scientific Reports, 2015)
Values belong to the compound of their own block, whether it stands above or below them.

Tests used:
[1] = tested on: PC9/G cells; assay: MTT cell growth inhibition assay in PC9/G cells; details: 72 h; for effect on cell viability when combined with Gef + Res treatment: 3-MA 5 mM or DEVD 10 nM with Gef 1 μM + Res 40 μM
Procedure: Cell viability was measured by MTT assay. Data are shown as means ± SD of three independent experiments. […] Then, cell viability, apoptosis, autophagy and senescence were detected as described in the Materials and methods. […] Res: Resveratrol; 3-MA: 3-methyladenine; DEVD: Ac-DEVD-CHO. The antiproliferative effects of the treatments were evaluated using the MTT assay. Cells were seeded at a density of 4 × 10^3 cells/well in 96-well plates. […] Then, MTT assays were performed as described previously. […] The different drug doses were combined using constant ratios of the IC50 values calculated from the previous cytotoxicity tests. […] The effects of different drug combinations were evaluated using the CompuSyn software (Biosoft, Ferguson, MO, USA) based on the median effect model of Chou and Talay[43].

[2] = tested on: PC9/G cells; assay: SA-β-gal senescence assay; assay type: cell-based, human; details: Gef 1 μM alone or combined with Res 40 μM, 72 h
Procedure: (§1) Figure 4 Res enhanced Gef-induced apoptosis, autophagy, G2/M phase cell cycle arrest, and senescence in PC9/G cells. […] (A) Morphological changes in PC9/G cells including nuclei condensation and fragmentation (arrow) were observed by DAPI staining under a fluorescence microscope. (B) Annexin V-FITC/PI staining assay of PC9/G cells was analysed by flow cytometry. (C) Autophagy was detected by MDC staining, and (D) fluorescence intensity was detected by flow cytometry. (E) Cells were stained with PI, and then the DNA content was analysed by flow cytometry. Sub-G1, G1, S and G2/M indicate different cell cycle phases. (F) Cells were stained for SA-β-Gal activity. The percentage of senescent cells in PC9/G cells was measured. Magnification: 200× .
Cell senescence was measured following the manufacturer’s protocol of the SA-β-gal assay kit. According to the protocol, cells were fixed with 2% paraformaldehyde for 15 min at room temperature and then incubated with fresh SA-β-gal stain solution in the dark at 37 °C overnight. SA-β-gal-positive cells were quantified by counting stained and unstained cells, and the result is presented as the ratio of SA-β-gal-positive cells over the total cells counted.

[3] = tested on: PC9/G cells; assay: Annexin V-FITC/PI apoptosis assay by flow cytometry; assay type: cell-based, human; details: Gef 1 μM alone or combined with Res 40 μM, 72 h
Procedure: as §1
For apoptosis analysis, cells were washed twice with 1× binding buffer then labelled with Annexin V and propidium iodide (PI) following the manufacturer’s instructions. The Apoptosis Analysis Kit was ordered from Tianjin Sungene Biotech (Tianjing, China). For cell cycle analysis, cells were washed twice with ice-cold PBS and fixed with 70% ethanol at −20 °C overnight. […] The analysis of the samples was performed by flow cytometry (Becton-Dickinson, San Jose, CA, USA), and the acquired data were analysed with the CellQuest software (BD Biosciences).

[4] = tested on: A549 cells; assay: MTT cell growth inhibition assay in A549 cells; assay type: cell-based; details: Homo sapiens
Procedure: (§2) The antiproliferative effects of the treatments were evaluated using the MTT assay. Cells were seeded at a density of 4 × 10^3 cells/well in 96-well plates. […] Then, MTT assays were performed as described previously.
(§3) are shown as means ± SD of three independent experiments.

[5] = tested on: H1975 cells; assay: MTT cell growth inhibition assay in H1975 cells; assay type: cell-based; details: Homo sapiens, NCI-H1975
Procedure: as §2, §3

[6] = tested on: HCC827 cells; assay: MTT cell growth inhibition assay in HCC827 cells; assay type: cell-based; details: Homo sapiens
Procedure: as §2, §3

[7] = tested on: H1299 cells; assay: MTT cell growth inhibition assay in H1299 cells; assay type: cell-based; details: Homo sapiens, NCI-H1299
Procedure: as §2, §3

[8] = tested on: HCC827/G cells; assay: MTT cell growth inhibition assay in HCC827/G cells; assay type: cell-based; details: Homo sapiens
Procedure: as §2, §3

[9] = tested on: PC9 cells; assay: MTT cell growth inhibition assay in PC9 cells; assay type: cell-based; details: Homo sapiens, PC-9, single drug, 72 h
Procedure: Then, MTT assays were performed as described previously.

Compound: Ac-DEVD-CHO
toxic effect on cell viability, alone ([1]; PC9/G cells, 3-MA 5 mM or DEVD 10 nM alone): no toxic effects
effect on cell viability when combined with Gef + Res treatment ([1]; PC9/G cells): no effect

Compound: COc1cc2ncnc(Nc3ccc(F)c(Cl)c3)c2cc1OCCCN1CCOCC1 [Gef, Gefitinib]
proportion of SA-β-gal-positive cells [2]: 11.4 ± 1.6%
apoptosis rate [3]: 9.77 ± 2.96

IC50 ([1]; Homo sapiens): 33.9 ± 1.6 µM
IC50 [4]: 72.4 ± 2.76 µM
IC50 [5]: 74.6 ± 2.03 µM
IC50 [6]: 73.4 ± 4.32 µM
IC50 [7]: 88.8 ± 1.62 µM
IC50 [8]: 42.9 ± 3.54 µM
IC50 [9]: 82.5 ± 10 µM
Compound: Oc1ccc(/C=C/c2cc(O)cc(O)c2)cc1 [Res, Resveratrol]

Compound: Cn1cnc(N)c2ncnc1-2 [3-MA, 3-methyladenine]
effect on cell viability when combined with Gef + Res treatment ([1]; PC9/G cells): significantly potentiated the reduction of cell viability
